Test results as given in patent US20080188688A1, “SOLVENTS FOR PHASE-TRANSFER-CATALYZED REACTIONS” (priority 2007, published 2008).

Test: Log P determined in accordance with OECD Guideline No. 107 for the Testing of Chemicals (water/n-octanol)
[1] = Log P (Log P value of the solvent, as measured in accordance with Guideline No. 107), summary table of the examples
[2] = Log P determined in accordance with OECD Guideline 107 for the Testing of Chemicals, water/n-octanol 1:1 by weight, 20° C.
[3] = log P value, as printed in the abbreviations list

| SMILES | logP [1] | logP [2] | logP [3] |
| --- | --- | --- | --- |
| CCCCCCCCCC(=O)N(C)C [Decanoic acid dimethyl amide] | 2.94 | 2.94 | 2.94 |
| CC(=O)CC(C)C [MIBK, methyl isobutyl ketone] | 1.4 | 1.4 | 1.31 |
| COC(C)(C)C [MTBE, methyl tert.butyl ether] | 1.12 | 1.12 | – |
